Test results taken from patent publication US8044069B2, “Compounds as calcium channel blockers” (Abbott Laboratories, priority 2008, dated 2011).

Biological target: human Cav2.2 (Homo sapiens, UniProt Q00975)
Assay: Assessment of calcium channel activity using FLIPR (Ca2+ influx in IMR32 cells)
Format: cell-based
Settings: IMR32 cells endogenously expressing human Cav2.2; 60 minute pre-incubation; 2 μM nifedipine; depolarized with 80 mM KCl, 5 mM CaCl2
Procedure, shortened: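 IMR32 cells were dye-loaded and pre-incubated 60 min with compound (10 μM to 0.1 nM) in 1.3 mM CaCl2 plus 2 μM nifedipine to block L-type channels. Cells were then depolarized with 80 mM KCl while Ca2+ was raised to 5 mM, and FLIPR read the influx. IC50 came from a sigmoidal fit of % inhibition versus the no-inhibitor control.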

Sequence of human Cav2.2 (Q00975 whole entry): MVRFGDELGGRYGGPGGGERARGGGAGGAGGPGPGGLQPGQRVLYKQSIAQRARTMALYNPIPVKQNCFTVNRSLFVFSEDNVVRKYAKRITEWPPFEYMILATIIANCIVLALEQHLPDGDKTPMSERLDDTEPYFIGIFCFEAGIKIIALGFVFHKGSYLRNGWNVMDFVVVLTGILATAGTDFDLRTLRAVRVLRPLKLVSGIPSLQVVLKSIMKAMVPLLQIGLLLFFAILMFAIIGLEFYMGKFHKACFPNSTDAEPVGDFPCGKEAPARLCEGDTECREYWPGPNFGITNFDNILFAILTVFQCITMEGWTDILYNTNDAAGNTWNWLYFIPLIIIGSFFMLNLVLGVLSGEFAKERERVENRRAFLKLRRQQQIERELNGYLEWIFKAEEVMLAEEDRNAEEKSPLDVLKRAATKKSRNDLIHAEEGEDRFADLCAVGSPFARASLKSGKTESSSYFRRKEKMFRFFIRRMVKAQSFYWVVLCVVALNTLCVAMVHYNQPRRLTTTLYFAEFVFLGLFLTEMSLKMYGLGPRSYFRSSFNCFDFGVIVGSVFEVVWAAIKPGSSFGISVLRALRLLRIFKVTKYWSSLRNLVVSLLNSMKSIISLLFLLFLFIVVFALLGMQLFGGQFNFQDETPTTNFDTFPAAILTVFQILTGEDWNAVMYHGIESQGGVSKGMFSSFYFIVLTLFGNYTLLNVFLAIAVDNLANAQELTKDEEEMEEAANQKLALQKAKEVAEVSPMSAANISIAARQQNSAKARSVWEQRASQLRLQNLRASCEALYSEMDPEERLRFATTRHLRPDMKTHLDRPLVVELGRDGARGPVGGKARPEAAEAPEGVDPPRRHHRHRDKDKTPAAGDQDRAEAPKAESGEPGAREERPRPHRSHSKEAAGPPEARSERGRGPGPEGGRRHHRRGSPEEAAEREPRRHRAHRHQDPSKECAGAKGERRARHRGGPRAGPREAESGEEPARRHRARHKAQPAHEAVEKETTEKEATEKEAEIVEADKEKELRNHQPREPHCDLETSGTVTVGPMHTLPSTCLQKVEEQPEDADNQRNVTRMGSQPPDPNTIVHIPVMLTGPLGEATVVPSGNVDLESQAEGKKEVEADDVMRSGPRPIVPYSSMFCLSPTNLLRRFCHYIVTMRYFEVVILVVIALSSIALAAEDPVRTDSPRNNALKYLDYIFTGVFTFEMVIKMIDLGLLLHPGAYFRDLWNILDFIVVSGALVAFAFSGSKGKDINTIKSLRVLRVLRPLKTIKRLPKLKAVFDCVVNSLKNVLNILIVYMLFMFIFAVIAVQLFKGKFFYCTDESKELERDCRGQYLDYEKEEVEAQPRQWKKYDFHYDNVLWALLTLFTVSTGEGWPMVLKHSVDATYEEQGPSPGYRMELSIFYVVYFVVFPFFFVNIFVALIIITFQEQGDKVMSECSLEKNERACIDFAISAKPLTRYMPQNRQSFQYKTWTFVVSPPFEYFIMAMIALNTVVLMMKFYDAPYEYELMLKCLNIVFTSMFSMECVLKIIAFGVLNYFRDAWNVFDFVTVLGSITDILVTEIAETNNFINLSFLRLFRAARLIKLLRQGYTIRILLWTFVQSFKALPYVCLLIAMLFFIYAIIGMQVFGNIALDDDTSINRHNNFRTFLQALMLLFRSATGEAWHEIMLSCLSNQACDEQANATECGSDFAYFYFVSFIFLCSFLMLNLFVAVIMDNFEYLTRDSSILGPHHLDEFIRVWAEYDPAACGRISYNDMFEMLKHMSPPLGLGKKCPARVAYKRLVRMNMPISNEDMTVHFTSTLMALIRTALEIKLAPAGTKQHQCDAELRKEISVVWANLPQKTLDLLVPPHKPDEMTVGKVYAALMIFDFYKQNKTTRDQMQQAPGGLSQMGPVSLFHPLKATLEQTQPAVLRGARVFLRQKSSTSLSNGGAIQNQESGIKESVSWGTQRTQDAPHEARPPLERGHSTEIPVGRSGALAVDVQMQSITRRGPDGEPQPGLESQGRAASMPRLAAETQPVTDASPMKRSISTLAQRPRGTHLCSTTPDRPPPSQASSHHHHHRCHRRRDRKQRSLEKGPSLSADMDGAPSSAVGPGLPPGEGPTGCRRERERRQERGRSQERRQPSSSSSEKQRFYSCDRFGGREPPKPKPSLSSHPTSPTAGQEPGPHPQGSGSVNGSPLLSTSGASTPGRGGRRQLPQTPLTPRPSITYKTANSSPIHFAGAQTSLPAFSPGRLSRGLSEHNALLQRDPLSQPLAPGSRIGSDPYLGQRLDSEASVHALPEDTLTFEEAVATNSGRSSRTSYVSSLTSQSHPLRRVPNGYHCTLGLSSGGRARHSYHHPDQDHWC
Sequence of human Cav2.2 (P54289 25-951 partner limits assumed): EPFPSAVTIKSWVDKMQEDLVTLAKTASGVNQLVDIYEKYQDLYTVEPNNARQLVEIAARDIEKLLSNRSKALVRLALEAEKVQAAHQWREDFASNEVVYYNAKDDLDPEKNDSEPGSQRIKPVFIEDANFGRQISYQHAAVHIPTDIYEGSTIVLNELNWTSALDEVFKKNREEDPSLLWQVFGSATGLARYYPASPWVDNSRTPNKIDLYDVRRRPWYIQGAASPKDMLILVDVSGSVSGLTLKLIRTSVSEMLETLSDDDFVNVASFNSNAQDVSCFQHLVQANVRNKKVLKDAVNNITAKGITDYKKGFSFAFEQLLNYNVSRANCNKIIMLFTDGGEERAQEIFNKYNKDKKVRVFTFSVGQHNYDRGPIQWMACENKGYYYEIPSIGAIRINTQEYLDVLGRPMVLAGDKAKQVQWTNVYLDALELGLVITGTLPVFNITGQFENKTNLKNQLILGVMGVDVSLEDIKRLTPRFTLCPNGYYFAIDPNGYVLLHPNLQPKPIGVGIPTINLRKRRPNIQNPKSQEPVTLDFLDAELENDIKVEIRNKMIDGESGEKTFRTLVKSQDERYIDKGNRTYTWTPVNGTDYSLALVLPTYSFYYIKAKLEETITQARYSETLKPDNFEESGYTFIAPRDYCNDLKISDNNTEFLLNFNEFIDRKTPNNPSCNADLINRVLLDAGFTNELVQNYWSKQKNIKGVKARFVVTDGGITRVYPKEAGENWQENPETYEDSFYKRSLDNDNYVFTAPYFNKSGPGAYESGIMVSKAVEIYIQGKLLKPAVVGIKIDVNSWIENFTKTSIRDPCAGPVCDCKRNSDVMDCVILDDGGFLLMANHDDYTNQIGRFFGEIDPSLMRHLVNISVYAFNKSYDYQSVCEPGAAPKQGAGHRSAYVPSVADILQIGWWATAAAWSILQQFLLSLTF
Sequence of human Cav2.2 (P54289 952-1103 partner limits assumed): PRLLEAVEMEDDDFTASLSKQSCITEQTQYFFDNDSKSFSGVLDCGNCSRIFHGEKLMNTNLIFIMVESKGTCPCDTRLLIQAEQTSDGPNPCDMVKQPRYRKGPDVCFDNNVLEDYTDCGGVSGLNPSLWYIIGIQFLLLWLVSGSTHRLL
Sequence of human Cav2.2 (P54284 whole entry partner): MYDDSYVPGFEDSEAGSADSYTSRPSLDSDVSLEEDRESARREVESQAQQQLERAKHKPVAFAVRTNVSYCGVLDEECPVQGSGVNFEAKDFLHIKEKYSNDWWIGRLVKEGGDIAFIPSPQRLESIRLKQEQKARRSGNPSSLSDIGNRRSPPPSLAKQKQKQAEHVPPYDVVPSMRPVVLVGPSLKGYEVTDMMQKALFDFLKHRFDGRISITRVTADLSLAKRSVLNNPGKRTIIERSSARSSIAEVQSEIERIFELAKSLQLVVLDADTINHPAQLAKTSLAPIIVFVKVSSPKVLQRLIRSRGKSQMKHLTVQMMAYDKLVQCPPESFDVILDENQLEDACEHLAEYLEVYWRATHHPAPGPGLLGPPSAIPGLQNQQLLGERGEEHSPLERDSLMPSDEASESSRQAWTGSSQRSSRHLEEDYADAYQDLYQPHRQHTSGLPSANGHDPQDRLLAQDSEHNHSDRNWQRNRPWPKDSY

| Compound | IC50 [nM] |
| --- | --- |
| O=C1N(Cc2noc(-c3ccc(C(F)(F)F)cc3)n2)CCC1(c1ccccc1)c1ccccc1 [Example 196, 3,3-diphenyl-1-({5-[4-(trifluoromethyl)phenyl]-1,2,4-oxadiazol-3-yl}methyl)pyrrolidin-2-one] | 4010 |
| COc1ccc(C2(c3ccc(OC)cc3)CCCN(CCCN(C)CCc3cc(OC)cc(OC)c3)C2=O)cc1 [Example 119, 1-{3-[[2-(3,5-dimethoxyphenyl)ethyl](methyl)amino]propyl}-3,3-bis(4-methoxyphenyl)piperidin-2-one] | 2680 |
| CN(CCCN1CCCC(c2ccc(F)cc2)(c2ccc(F)cc2)C1=O)CCc1ccccc1 [Example 123, 3,3-bis(4-fluorophenyl)-1-{3-[methyl(2-phenylethyl)amino]propyl}piperidin-2-one] | 1450 |
| O=C(CN1CCC(c2ccc(C(F)(F)F)cc2)C1=O)N1Cc2ccc(C(F)(F)F)cc2C1 (stereo not shown) [Example 267, 1-{2-oxo-2-[5-(trifluoromethyl)-1,3-dihydro-2H-isoindol-2-yl]ethyl}-3-[4-(trifluoromethyl)phenyl]pyrrolidin-2-one] | 7350 |
| O=C(CN1CCC(c2ccccc2)(c2ccccc2)C1=O)N1CCC(=C(c2ccccc2)c2ccccc2)CC1 [Example 31, 1-{2-[4-(diphenylmethylene)piperidin-1-yl]-2-oxoethyl}-3,3-diphenylpyrrolidin-2-one] | 1910 |
| O=C1N(CCCN2CCN(c3cccc(C(F)(F)F)c3)CC2)CCCC1(c1ccccc1)c1ccccc1 [Example 140, 3,3-diphenyl-1-(3-{4-[3-(trifluoromethyl)phenyl]piperazin-1-yl}propyl)piperidin-2-one] | 1250 |
| O=C(CN1CCNC(c2ccccc2)C1=O)N1CCN(C(c2ccc(F)cc2)c2ccc(F)cc2)CC1 (stereo not shown) [Example 103, 1-(2-{4-[bis(4-fluorophenyl)methyl]piperazin-1-yl}-2-oxoethyl)-3-phenylpiperazin-2-one] | 10600 |
| O=C(CN1CCC(c2ccccc2)(c2ccccc2)C1=O)N1CCC(NCc2cccc(C(F)(F)F)c2)CC1 [Example 42, 1-[2-oxo-2-(4-{[3-(trifluoromethyl)benzyl]amino}piperidin-1-yl)ethyl]-3,3-diphenylpyrrolidin-2-one] | 1130 |
| O=C(CN1CCC(c2ccccc2)(c2ccccc2)C1=O)N1CCOC(c2ccccc2)(c2ccccc2)C1 [Example 23, 1-[2-(2,2-diphenylmorpholin-4-yl)-2-oxoethyl]-3,3-diphenylpyrrolidin-2-one] | 690 |
| O=C1N(Cc2nc(CCc3ccccc3Cl)no2)CCCC1(c1ccccc1)c1ccccc1 [Example 262, 1-({3-[2-(2-chlorophenyl)ethyl]-1,2,4-oxadiazol-5-yl}methyl)-3,3-diphenylpiperidin-2-one] | 3390 |
| O=C1N(Cc2nc(-c3cc(F)cc(F)c3)no2)CCC1(c1ccccc1)c1ccccc1 [Example 215, 1-{[3-(3,5-difluorophenyl)-1,2,4-oxadiazol-5-yl]methyl}-3,3-diphenylpyrrolidin-2-one] | 6890 |
| O=C(CN1CCCC(c2ccccc2)(c2ccccc2)C1=O)N1CCc2ccccc2C1 [Example 260, 1-[2-(3,4-dihydroisoquinolin-2(1H)-yl)-2-oxoethyl]-3,3-diphenylpiperidin-2-one] | 7120 |
| CC(CNC(=O)CN1CCCC(c2ccccc2)(c2ccccc2)C1=O)(c1ccccc1)c1ccccc1 [Example 77, N-(2,2-diphenylpropyl)-2-(2-oxo-3,3-diphenylpiperidin-1-yl)acetamide] | 1710 |
| O=C(CN1CCC(c2ccccc2)(c2ccccc2)C1=O)NCc1ncco1 [Example 168, N-(1,3-oxazol-2-ylmethyl)-2-(2-oxo-3,3-diphenylpyrrolidin-1-yl)acetamide] | > 30000 |
| O=C(CN1CCC(c2ccccc2)(c2ccccc2)C1=O)N1CCC(C(O)(c2ccc(F)cc2)c2ccc(F)cc2)CC1 [Example 32, 1-(2-{4-[bis(4-fluorophenyl)(hydroxy)methyl]piperidin-1-yl}-2-oxoethyl)-3,3-diphenylpyrrolidin-2-one] | 710 |
| O=C(CN1CCCC(c2ccccc2)(c2ccccc2)C1=O)N1CCC(C(c2ccccc2)c2ccccc2)CC1 [Example 76, 1-[2-(4-benzhydrylpiperidin-1-yl)-2-oxoethyl]-3,3-diphenylpiperidin-2-one] | 2610 |
| O=C(CN1CCCC(c2ccccc2)(c2ccccc2)C1=O)N1CCC(c2ccccc2)(c2ccccc2)C1 [Example 174, 1-[2-(3,3-diphenylpyrrolidin-1-yl)-2-oxoethyl]-3,3-diphenylpiperidin-2-one] | 2430 |
| O=C(CN1CCC(c2ccc(F)cc2)(c2ccc(F)cc2)C1=O)N1CC2(CCN(Cc3ccccc3)CC2)C1 [Example 152, 1-[2-(7-benzyl-2,7-diazaspiro[3.5]non-2-yl)-2-oxoethyl]-3,3-bis(4-fluorophenyl)pyrrolidin-2-one] | 730 |
| N-(1-benzhydryl-3-methylpyrrolidin-3-yl)-2-(2-oxo-3,3-diphenylpiperidin-1-yl)acetamide [Example 86] | 2200 |

| Compound | IC50 [nM] |
| --- | --- |
| Cc1nc(-c2ccc(C(F)(F)F)cc2)sc1CN1CCC(c2ccccc2)(c2ccccc2)C1=O [Example 156, 1-({4-methyl-2-[4-(trifluoromethyl)phenyl]-1,3-thiazol-5-yl}methyl)-3,3-diphenylpyrrolidin-2-one] | 6180 |
| O=C(CN1CCC(c2ccccc2)(c2ccccc2)C1=O)Nc1cccc(C(F)(F)F)n1 [Example 247, 2-(2-oxo-3,3-diphenylpyrrolidin-1-yl)-N-[6-(trifluoromethyl)pyridin-2-yl]acetamide] | 4480 |
| O=C(CN1CCCC(c2ccccc2)(c2ccccc2)C1=O)N1CCC(c2ccc(F)cc2)(c2ccc(F)cc2)C1 [Example 205, 1-{2-[3,3-bis(4-fluorophenyl)pyrrolidin-1-yl]-2-oxoethyl}-3,3-diphenylpiperidin-2-one] | 3320 |
| O=C(CN1CCC(c2ccc(F)cc2)(c2ccc(F)cc2)C1=O)NC1CCN(Cc2cccc(C(F)(F)F)c2)CC1 [Example 208, 2-[3,3-bis(4-fluorophenyl)-2-oxopyrrolidin-1-yl]-N-{1-[3-(trifluoromethyl)benzyl]piperidin-4-yl}acetamide] | 2400 |
| O=C(CN1CCC[C@H](c2ccccc2)C1=O)N1Cc2ccc(F)cc2C1 (single isomer, unassigned) [Example 188] | > 30000 |
| O=C(CN1CCC(c2ccccc2)(c2ccccc2)C1=O)N[C@H]1CC[C@H]2CN(Cc3cccc(C(F)(F)F)c3)C[C@H]21 (relative stereo) [Example 56, 2-(2-oxo-3,3-diphenylpyrrolidin-1-yl)-N-{(3aS*,4S*,6aR*)-2-[3-(trifluoromethyl)benzyl]octahydrocyclopenta[c]pyrrol-4-yl}acetamide] | 1100 |
| O=C(CN1CCCC(c2ccccc2)(c2ccccc2)C1=O)N1CCCC(c2ccccc2)(c2ccccc2)C1 [Example 71, 1-[2-(3,3-diphenylpiperidin-1-yl)-2-oxoethyl]-3,3-diphenylpiperidin-2-one] | 3410 |
| O=C(CN1CCC(c2ccccc2)(c2ccccc2)C1=O)N1CCC(NCC(c2ccccc2)c2ccccc2)CC1 [Example 52, 1-(2-{4-[(2,2-diphenylethyl)amino]piperidin-1-yl}-2-oxoethyl)-3,3-diphenylpyrrolidin-2-one] | 1540 |
| O=C(CN1CCC(c2ccccc2)(c2ccccc2)C1=O)N1Cc2ccc(C(F)(F)F)cc2C1 [Example 20, 1-{2-oxo-2-[5-(trifluoromethyl)-1,3-dihydro-2H-isoindol-2-yl]ethyl}-3,3-diphenylpyrrolidin-2-one] | 2820 |
| O=C1CN(C(c2ccccc2)c2ccccc2)CCN1CCN1CCC(c2ccccc2)(c2ccccc2)C1=O [Example 64, 4-benzhydryl-1-[2-(2-oxo-3,3-diphenylpyrrolidin-1-yl)ethyl]piperazin-2-one] | 2090 |
| O=C1N(Cc2nc(-c3cccc(C(F)(F)F)c3)no2)CCCC1(c1ccccc1)c1ccccc1 [Example 179, 3,3-diphenyl-1-({3-[3-(trifluoromethyl)phenyl]-1,2,4-oxadiazol-5-yl}methyl)piperidin-2-one] | 9410 |
| COc1cc(CN2CCN(CCCN3CCC(c4ccc(F)cc4)(c4ccc(F)cc4)C3=O)CC2)cc(OC)c1OC [Example 110, 3,3-bis(4-fluorophenyl)-1-{3-[4-(3,4,5-trimethoxybenzyl)piperazin-1-yl]propyl}pyrrolidin-2-one] | 1470 |
| COc1ccc(C2(c3ccc(OC)cc3)CCCN(CCN3CCN(Cc4cc(OC)cc(OC)c4)CC3)C2=O)cc1 [Example 132, 1-{2-[4-(3,5-dimethoxybenzyl)piperazin-1-yl]ethyl}-3,3-bis(4-methoxyphenyl)piperidin-2-one] | 2300 |
| O=C(CN1CCC(c2ccc(F)cc2Cl)C1=O)N1Cc2ccc(C(F)(F)F)cc2C1 (stereo not shown) [Example 269, 3-(2-chloro-4-fluorophenyl)-1-{2-oxo-2-[5-(trifluoromethyl)-1,3-dihydro-2H-isoindol-2-yl]ethyl}pyrrolidin-2-one] | 3210 |
| CC1(NC(=O)CN2CCC(c3ccccc3)(c3ccccc3)C2=O)CCN(Cc2ccccc2)C1 (stereo not shown) [Example 40, N-(1-benzyl-3-methylpyrrolidin-3-yl)-2-(2-oxo-3,3-diphenylpyrrolidin-1-yl)acetamide] | 2110 |
| O=C(CN1CCC(c2ccccc2)(c2ccccc2)C1=O)N1CCC(C(O)(c2cccc(C(F)(F)F)c2)c2cccc(C(F)(F)F)c2)CC1 [Example 33, 1-{2-[4-(hydroxy{bis[3-(trifluoromethyl)phenyl]}methyl)piperidin-1-yl]-2-oxoethyl}-3,3-diphenylpyrrolidin-2-one] | 7550 |
| O=C(CN1CCC(c2ccccc2)(c2ccccc2)C1=O)NC(c1ccccc1)C1CC1 (stereo not shown) [Example 9, N-[cyclopropyl(phenyl)methyl]-2-(2-oxo-3,3-diphenylpyrrolidin-1-yl)acetamide] | 2100 |
| O=C(NC1CC1)c1cccc(S(=O)(=O)N2CCC(c3ccccc3)(c3ccccc3)C2=O)c1 [Example 150, N-cyclopropyl-3-[(2-oxo-3,3-diphenylpyrrolidin-1-yl)sulfonyl]benzamide] | 860 |
